{"source": "paper PMC11956013", "about": "“Structure–Activity Relationships and Evaluation of 2-(Heteroaryl-cycloalkyl)-1H-indoles as Tauopathy Positron Emission Tomography Radiotracers” (Journal of Medicinal Chemistry, 2025)", "key": {"[1]": {"biological_target": "A2B (h) (Homo sapiens, UniProt P29275)", "sequence (P29275 whole entry)": "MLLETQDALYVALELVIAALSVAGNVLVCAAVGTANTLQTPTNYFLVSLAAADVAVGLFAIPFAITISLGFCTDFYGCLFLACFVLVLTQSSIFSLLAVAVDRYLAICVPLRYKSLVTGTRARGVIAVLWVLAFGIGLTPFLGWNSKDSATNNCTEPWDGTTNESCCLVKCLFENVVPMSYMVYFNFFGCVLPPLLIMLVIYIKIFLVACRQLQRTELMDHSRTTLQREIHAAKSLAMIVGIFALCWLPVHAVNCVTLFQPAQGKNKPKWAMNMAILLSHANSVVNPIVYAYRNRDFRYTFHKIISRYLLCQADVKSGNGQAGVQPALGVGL", "assay": "Eurofins panel: A2B (h) (antagonist radioligand)", "conditions": "1.0E-05 M"}, "[2]": {"system": "Ca2+ channel (L, verapamil site) (phenylalkylamine)", "assay": "Eurofins panel: Ca2+ channel (L, verapamil site) (phenylalkylamine) (antagonist radioligand)", "assay_type": "binding", "conditions": "1.0E-05 M"}, "[3]": {"biological_target": "CYP3A (Homo sapiens, UniProt P08684)", "assay": "in vitro", "conditions": "human liver microsomes, probe midazolam"}, "[4]": {"system": "AMPA", "assay": "Eurofins panel: AMPA (agonist radioligand)", "assay_type": "binding", "conditions": "1.0E-05 M; AMPA (agonist radioligand)"}, "[5]": {"system": "kainate", "assay": "kainate (agonist radioligand), Eurofins assay 65", "conditions": "Specific binding; 1.0E-05 M"}, "[6]": {"biological_target": "MAO-A, human, monoamine oxydase A (Homo sapiens, UniProt P21397)", "assay": "MAO-A, human, monoamine oxydase A, MAO, Enzymatic Assay, Cerep, assay 5108"}, "[7]": {"system": "Ca2+ channel (N)", "assay_type": "binding"}, "[8]": {"biological_target": "M4 (h) (Homo sapiens, UniProt P08173)", "assay": "M4 (h) (antagonist radioligand), Eurofins assay 96"}, "[9]": {"system": "sigma (non-selective) (h)", "conditions": "compound concentration 1.0E-05 M"}, "[10]": {"biological_target": "D3 (h) (Homo sapiens, UniProt P35462)", "sequence (P35462 whole entry)": "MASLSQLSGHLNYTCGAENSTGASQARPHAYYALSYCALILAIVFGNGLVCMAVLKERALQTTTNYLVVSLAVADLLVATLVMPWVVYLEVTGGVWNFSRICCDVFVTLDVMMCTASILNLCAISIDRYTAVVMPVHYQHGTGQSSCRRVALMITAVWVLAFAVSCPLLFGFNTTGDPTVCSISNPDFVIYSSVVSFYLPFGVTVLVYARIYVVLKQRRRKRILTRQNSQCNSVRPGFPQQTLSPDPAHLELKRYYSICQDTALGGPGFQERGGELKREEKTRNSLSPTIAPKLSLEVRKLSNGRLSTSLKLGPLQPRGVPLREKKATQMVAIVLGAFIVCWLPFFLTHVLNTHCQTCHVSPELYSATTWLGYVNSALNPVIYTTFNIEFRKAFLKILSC", "assay": "D3 (h) (antagonist radioligand), Eurofins assay 48"}, "[11]": {"biological_target": "carbonic anhydrase II (h) (Homo sapiens, UniProt P00918)", "conditions": "1.0E-05 M"}, "[12]": {"biological_target": "EGFR kinase (h) (Homo sapiens, UniProt P00533)", "sequence (P00533 25-1210)": "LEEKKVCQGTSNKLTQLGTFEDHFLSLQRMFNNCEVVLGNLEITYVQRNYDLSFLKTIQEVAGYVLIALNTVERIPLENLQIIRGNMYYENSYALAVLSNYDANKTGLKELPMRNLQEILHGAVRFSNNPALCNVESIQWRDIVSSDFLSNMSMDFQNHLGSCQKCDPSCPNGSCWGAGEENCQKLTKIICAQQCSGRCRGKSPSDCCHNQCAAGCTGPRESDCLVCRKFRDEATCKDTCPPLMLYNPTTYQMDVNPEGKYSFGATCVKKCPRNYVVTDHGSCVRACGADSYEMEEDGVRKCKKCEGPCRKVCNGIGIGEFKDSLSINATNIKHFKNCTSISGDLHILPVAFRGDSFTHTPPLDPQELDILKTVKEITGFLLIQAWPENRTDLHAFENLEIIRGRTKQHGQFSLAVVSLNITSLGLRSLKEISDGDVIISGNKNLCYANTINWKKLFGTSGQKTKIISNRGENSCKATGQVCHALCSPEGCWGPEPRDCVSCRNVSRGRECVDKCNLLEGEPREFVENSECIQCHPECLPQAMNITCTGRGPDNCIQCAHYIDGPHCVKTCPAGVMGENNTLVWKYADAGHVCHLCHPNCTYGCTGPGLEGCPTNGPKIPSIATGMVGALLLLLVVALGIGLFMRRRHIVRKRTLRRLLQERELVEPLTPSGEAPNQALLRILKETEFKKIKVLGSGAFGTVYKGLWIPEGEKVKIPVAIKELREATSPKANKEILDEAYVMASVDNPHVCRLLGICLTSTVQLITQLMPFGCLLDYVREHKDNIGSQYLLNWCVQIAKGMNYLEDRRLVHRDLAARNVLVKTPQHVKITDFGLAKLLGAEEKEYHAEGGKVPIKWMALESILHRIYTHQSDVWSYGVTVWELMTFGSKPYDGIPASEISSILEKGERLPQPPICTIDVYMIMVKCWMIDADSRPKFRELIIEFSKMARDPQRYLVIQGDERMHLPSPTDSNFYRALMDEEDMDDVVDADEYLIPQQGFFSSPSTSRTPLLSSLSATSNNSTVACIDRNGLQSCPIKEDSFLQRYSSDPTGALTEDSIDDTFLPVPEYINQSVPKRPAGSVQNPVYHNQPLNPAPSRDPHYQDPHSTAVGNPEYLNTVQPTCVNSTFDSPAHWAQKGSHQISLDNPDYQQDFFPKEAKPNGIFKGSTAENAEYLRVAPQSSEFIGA", "conditions": "Enzymatic activity; 1.0E-05 M"}, "[13]": {"biological_target": "IRK (h) (InsR) (Homo sapiens, UniProt P06213)", "assay": "biochemical"}, "[14]": {"biological_target": "T1, 5-HT2A (h) (Homo sapiens, UniProt P28223)", "T1 construct": "purchased Eurofins (contract screening, CNS SafetyScreen panel)", "T1 sequence (P28223 whole entry)": "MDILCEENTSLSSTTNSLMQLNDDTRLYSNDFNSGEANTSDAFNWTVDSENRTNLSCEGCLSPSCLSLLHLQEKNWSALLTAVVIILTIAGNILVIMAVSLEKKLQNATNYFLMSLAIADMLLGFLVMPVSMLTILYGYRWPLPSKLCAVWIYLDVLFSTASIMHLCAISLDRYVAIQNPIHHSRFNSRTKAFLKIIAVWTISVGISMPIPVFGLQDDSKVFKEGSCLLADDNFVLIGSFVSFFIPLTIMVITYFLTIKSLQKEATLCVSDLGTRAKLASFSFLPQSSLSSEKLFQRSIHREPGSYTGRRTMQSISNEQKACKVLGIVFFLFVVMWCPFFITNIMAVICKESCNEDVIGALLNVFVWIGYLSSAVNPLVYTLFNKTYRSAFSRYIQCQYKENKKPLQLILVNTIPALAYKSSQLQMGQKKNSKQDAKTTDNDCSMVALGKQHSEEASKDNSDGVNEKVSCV", "assay": "Eurofins panel: 5-HT2A (h) (agonist radioligand)", "assay_type": "binding", "conditions": "1.0E-05 M; 5-HT2A (h) (agonist radioligand)"}, "[15]": {"biological_target": "acetylcholinesterase (h) (Homo sapiens, UniProt P22303)"}, "[16]": {"biological_target": "V1a (h) (Homo sapiens, UniProt P37288)", "conditions": "compound concentration 1.0E-05 M"}, "[17]": {"biological_target": "D4.4 (h) (Homo sapiens, UniProt P21917)", "assay": "biochemical"}, "[18]": {"biological_target": "dopamine transporter (h) (Homo sapiens, UniProt Q01959)", "assay": "dopamine transporter (h) (antagonist radioligand), Eurofins assay 52"}, "[19]": {"biological_target": "T2, alpha1A (h) (Homo sapiens, UniProt P35348)", "T2 sequence (P35348 1-466)": "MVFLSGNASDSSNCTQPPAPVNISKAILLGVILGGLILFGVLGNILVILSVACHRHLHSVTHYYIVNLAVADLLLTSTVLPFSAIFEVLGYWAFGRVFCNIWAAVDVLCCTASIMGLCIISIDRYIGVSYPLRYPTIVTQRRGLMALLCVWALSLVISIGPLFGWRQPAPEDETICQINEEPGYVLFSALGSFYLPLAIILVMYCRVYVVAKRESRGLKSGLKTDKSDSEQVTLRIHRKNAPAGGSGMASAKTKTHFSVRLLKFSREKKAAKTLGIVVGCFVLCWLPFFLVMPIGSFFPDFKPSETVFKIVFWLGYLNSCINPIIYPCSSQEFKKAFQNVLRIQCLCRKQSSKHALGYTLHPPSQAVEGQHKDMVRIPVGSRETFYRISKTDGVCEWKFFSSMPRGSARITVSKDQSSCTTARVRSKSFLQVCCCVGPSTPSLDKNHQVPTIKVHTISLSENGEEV", "assay": "Eurofins panel: alpha1A (h) (antagonist radioligand)", "conditions": "1.0E-05 M; alpha1A (h) (antagonist radioligand)"}, "[20]": {"biological_target": "alpha1B (h) (Homo sapiens, UniProt P35368)", "conditions": "1.0E-05 M; alpha1B (h) (antagonist radioligand)"}, "[21]": {"biological_target": "OX1 (h) (Homo sapiens, UniProt O43613)", "sequence (O43613 whole entry)": "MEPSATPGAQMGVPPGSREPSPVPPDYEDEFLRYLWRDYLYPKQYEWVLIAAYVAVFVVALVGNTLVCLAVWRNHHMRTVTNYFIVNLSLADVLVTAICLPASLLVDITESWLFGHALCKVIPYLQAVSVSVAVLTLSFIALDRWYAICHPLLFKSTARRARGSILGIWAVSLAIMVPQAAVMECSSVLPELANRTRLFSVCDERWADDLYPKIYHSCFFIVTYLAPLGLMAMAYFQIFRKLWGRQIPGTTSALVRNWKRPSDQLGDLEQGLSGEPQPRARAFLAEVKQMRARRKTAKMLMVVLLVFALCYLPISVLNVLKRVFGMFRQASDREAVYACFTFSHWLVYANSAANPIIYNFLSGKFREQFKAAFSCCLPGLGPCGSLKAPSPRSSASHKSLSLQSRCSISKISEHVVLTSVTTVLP", "conditions": "compound concentration 1.0E-05 M"}, "[22]": {"biological_target": "T3, PDE4D2 (h) (Homo sapiens, UniProt Q08499)", "T3 construct": "purchased Eurofins (CNS SafetyScreen panel, contract assay)", "T3 sequence (Q08499 303-809 limits assumed)": "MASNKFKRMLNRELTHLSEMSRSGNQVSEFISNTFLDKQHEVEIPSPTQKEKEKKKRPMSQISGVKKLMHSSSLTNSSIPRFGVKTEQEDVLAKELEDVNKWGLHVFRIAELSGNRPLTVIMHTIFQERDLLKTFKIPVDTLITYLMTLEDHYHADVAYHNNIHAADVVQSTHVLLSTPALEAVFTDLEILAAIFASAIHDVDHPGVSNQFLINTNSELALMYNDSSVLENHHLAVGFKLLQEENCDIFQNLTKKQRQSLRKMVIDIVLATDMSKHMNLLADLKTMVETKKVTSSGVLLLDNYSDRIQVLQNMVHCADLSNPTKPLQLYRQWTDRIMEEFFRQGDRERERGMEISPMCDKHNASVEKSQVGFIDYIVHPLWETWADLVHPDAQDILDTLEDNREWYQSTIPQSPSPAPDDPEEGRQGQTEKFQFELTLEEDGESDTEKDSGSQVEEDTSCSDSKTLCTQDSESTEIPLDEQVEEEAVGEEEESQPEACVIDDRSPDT", "assay": "Eurofins panel: PDE4D2 (h)", "assay_type": "biochemical", "conditions": "compound concentration 1.0E-05 M"}, "[23]": {"biological_target": "M2 (h) (Homo sapiens, UniProt P08172)", "assay": "biochemical"}, "[24]": {"biological_target": "BZDp (TSPO) (h) (Homo sapiens, UniProt P30536)", "sequence (P30536 whole entry)": "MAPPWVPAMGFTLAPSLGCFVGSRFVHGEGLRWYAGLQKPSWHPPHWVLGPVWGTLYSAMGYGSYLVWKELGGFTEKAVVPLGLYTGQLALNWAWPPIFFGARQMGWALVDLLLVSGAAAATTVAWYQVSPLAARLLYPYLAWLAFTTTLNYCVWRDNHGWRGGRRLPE", "assay": "Eurofins panel: BZDp (TSPO) (h) (antagonist radioligand)", "conditions": "1.0E-05 M; BZDp (TSPO) (h) (antagonist radioligand)"}, "[25]": {"system": "SKCa channel", "conditions": "compound concentration 1.0E-05 M"}, "[26]": {"biological_target": "alpha2C (h) (Homo sapiens, UniProt P18825)", "conditions": "1.0E-05 M; alpha2C (h) (antagonist radioligand)"}, "[27]": {"biological_target": "D2L (h) (Homo sapiens, UniProt P14416)", "assay": "biochemical"}, "[28]": {"biological_target": "NK1 (h) (Homo sapiens, UniProt P25103)", "sequence (P25103 whole entry)": "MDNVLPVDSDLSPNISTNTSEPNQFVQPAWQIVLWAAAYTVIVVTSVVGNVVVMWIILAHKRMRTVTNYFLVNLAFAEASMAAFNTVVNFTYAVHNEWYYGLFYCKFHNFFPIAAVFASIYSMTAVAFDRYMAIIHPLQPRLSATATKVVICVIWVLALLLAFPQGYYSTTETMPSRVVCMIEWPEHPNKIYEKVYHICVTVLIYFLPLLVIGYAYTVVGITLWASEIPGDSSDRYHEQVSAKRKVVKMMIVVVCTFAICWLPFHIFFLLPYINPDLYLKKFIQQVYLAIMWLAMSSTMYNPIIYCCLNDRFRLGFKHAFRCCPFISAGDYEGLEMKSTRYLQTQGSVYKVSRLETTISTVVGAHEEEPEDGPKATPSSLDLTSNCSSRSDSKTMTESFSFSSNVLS", "conditions": "compound concentration 1.0E-05 M"}, "[29]": {"biological_target": "alpha2B (h) (Homo sapiens, UniProt P18089)", "sequence (P18089 whole entry)": "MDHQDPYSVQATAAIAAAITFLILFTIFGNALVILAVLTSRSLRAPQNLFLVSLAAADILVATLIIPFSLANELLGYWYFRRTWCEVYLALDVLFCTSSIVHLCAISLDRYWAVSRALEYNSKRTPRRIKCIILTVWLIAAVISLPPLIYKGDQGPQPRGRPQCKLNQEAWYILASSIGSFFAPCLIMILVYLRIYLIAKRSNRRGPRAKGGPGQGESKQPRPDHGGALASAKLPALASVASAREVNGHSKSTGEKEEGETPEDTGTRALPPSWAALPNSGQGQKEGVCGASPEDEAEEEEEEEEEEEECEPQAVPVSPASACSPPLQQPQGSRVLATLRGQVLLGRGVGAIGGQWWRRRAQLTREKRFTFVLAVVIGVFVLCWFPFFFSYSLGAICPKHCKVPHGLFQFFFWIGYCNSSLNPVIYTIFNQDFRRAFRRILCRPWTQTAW"}, "[30]": {"system": "PCP", "assay": "Eurofins panel: PCP (antagonist radioligand)", "assay_type": "binding", "conditions": "compound concentration 1.0E-05 M"}, "[31]": {"biological_target": "M3 (h) (Homo sapiens, UniProt P20309)", "sequence (P20309 whole entry)": "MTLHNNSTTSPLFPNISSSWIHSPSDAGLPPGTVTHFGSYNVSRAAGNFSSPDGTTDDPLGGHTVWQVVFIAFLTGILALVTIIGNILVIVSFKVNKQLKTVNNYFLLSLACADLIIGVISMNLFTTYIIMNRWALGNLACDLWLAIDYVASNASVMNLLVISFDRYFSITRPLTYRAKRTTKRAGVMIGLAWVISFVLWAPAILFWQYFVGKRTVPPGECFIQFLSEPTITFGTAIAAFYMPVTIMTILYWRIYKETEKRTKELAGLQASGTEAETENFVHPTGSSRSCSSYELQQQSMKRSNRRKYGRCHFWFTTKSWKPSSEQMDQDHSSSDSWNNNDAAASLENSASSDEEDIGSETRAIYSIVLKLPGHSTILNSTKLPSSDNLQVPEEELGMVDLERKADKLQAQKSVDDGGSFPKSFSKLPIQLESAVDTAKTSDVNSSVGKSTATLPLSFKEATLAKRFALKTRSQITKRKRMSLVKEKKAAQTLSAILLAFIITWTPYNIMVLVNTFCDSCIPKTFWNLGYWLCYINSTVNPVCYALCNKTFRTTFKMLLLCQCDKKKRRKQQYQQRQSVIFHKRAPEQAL", "assay": "biochemical"}}, "data": [{"smiles": "Fc1nc(N2CCOCC2)ccc1-c1cc2ccccc2[nH]1", "note": "[Compound 75, 4-(6-Fluoro-5-(1H-indol-2-yl)pyridin-2-yl)morpholine]", "values": [{"measurement": "% Inhibition, Specific binding", "setting": "[1]", "value": "-1.19E+01", "unit": "%"}, {"measurement": "% Inhibition, Specific binding", "setting": "[2]", "value": "-2.08E+01", "unit": "%"}, {"measurement": "inhibition at 10 µM", "setting": "[3]", "value": -2.45, "unit": "%"}, {"measurement": "% Inhibition, Specific binding", "setting": "[4]", "value": 4.317, "unit": "%"}, {"measurement": "% Inhibition", "setting": "[5]", "value": 7.0556, "unit": "%"}, {"measurement": "inhibition at 10 µM", "setting": "[6]", "value": 3.62, "unit": "%"}, {"measurement": "% Inhibition, Specific binding", "setting": "[7]", "value": "-3.62E+00", "unit": "%"}, {"measurement": "inhibition at 10 µM", "setting": "[8]", "value": -20.6, "unit": "%"}, {"measurement": "% Inhibition, Specific binding", "setting": "[9]", "value": "-4.77E+00", "unit": "%"}, {"measurement": "inhibition at 10 µM", "setting": "[10]", "value": -5.9, "unit": "%"}, {"measurement": "% Inhibition, Enzymatic activity", "setting": "[11]", "value": "-2.68E+01", "unit": "%"}, {"measurement": "% Inhibition", "setting": "[12]", "value": 16.5474, "unit": "%"}, {"measurement": "inhibition at 10 µM", "setting": "[13]", "value": -5.12, "unit": "%"}, {"measurement": "% Inhibition, Specific binding", "setting": "[14]", "value": 1.045, "unit": "%"}, {"measurement": "% Inhibition, Enzymatic activity", "setting": "[15]", "value": 1.77, "unit": "%"}, {"measurement": "% Inhibition, Specific binding", "setting": "[16]", "value": "-8.82E-01", "unit": "%"}, {"measurement": "inhibition at 10 µM", "setting": "[17]", "value": 20.4, "unit": "%"}, {"measurement": "inhibition at 10 µM", "setting": "[18]", "value": 17.2, "unit": "%"}, {"measurement": "% Inhibition, Specific binding", "setting": "[19]", "value": 3.065, "unit": "%"}, {"measurement": "% Inhibition, Specific binding", "setting": "[20]", "value": "-4.91E+00", "unit": "%"}, {"measurement": "% Inhibition, Specific binding", "setting": "[21]", "value": 6.092, "unit": "%"}, {"measurement": "% Inhibition, Enzymatic activity", "setting": "[22]", "value": "-7.60E+00", "unit": "%"}, {"measurement": "inhibition at 10 µM", "setting": "[23]", "value": -12.8, "unit": "%"}, {"measurement": "% Inhibition, Specific binding", "setting": "[24]", "value": 21.7657, "unit": "%"}, {"measurement": "% Inhibition, Specific binding", "setting": "[25]", "value": 0.9001, "unit": "%"}, {"measurement": "% Inhibition, Specific binding", "setting": "[26]", "value": 4.876, "unit": "%"}, {"measurement": "inhibition at 10 µM", "setting": "[27]", "value": -1.3, "unit": "%"}, {"measurement": "% Inhibition, Specific binding", "setting": "[28]", "value": 21.8946, "unit": "%"}, {"measurement": "% Inhibition, Specific binding", "setting": "[29]", "value": 2.179, "unit": "%"}, {"measurement": "% Inhibition, Specific binding", "setting": "[30]", "value": "-3.84E+00", "unit": "%"}, {"measurement": "inhibition at 10 µM", "setting": "[31]", "value": -12.5, "unit": "%"}]}]}
